One data set has as its target T1, HIV-1 Nef (Human immunodeficiency virus 1, UniProt P03406).
T1 sequence (P03406 2-206): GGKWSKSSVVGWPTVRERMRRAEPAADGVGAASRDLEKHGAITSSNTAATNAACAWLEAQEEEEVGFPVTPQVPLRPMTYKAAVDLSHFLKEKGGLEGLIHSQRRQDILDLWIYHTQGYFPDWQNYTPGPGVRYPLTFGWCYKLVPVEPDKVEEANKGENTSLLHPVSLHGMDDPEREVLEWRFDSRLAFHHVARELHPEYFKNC
Briefly: Anti-Nef activity: reversal of Nef-dependent MHC-I HLA-A2 downmodulation, flow cytometry. In kind it is cell-based. As for the experimental part: Determination of anti-Nef activity: To identify molecules with enhanced Nef inhibition, decreased toxicity and decreased inhibition of lysosomes, the analogs of the disclosure are screened initially for Nef inhibitory activity using a high throughput assay in HIV-1 infected CEM-A2 cells. These cells are infected with an HIV-1 reporter construct for 48 hours and then exposed to potential inhibitors for 24 hours. Cells are harvested and stained for flow cytometric analysis of HLA-A2 surface expression, and the fold downmodulation of HLA-A2 are calculated by comparing expression on uninfected cells to that on infected cells.
PBMCs is isolated from leukopaks, CD8-depleted, and stimulated with PHA.
To assess their toxicity, an MTT assay was used, which measures […] dehydrogenase activity. Metabolically active cells reduce MTT to MTT-formazan leading to a color change. For this analysis, PHA-activated primary human PBMCs were exposed to a range of concentrations of each drug continuously for 72 hours of culture.

Data set [1] deals with V-ATPase-dependent lysosomal acidification. The data set can be described thus: cells. Conditions: read-out: Lyso IC50. In kind it is cell-based, human. An excerpt:
Determine effect on V-ATPase activity: Plecomacrolides are known inhibitors of V-ATPase that neutralize normally acidified lysosomes. […] Thus, analogs of the disclosure are further characterized by measuring their effects on lysosome acidification.
LysoTracker® is a fluorophore linked to a weak base that is partially protonated at neutral pH. This form of the probe is capable of freely permeating cell membranes of live cells. In acidic compartments, protonation creates a form that was impermeable causing the probe to accumulate inside the lysosome.

A further data set has as its system C57BL/6J and BALB/c mice. Conditions: five consecutive doses at 12 mg/kg; cited from earlier work.
For data set [2], the system named is Nef-dependent degradation of MHC-I and CD4. Briefly: Western blot of Nef-dependent protein degradation in sorted HIV-1 infected primary T cells. In kind it is cell-based, human. (In western blotting, separated proteins are transferred to a membrane and probed.)
Data set [3] deals with HIV-1 WT infected primary T cells. The data set can be described thus: In vitro flow cytometric anti-HIV-1 CTL killing assay. In kind it is cell-based, human. Conditions: low dose CMA (0.5 nM in FIG. 8); anti-HIV-1 CTL clone. As for the experimental part: Numbers are mean percent infected cell survival after a 4 hour incubation with a 2:1 effector:target (E:T) ratio of an anti-HIV-1 CTL clone recognizing Gag SL9 epitope (n=2).
Mean +/− standard deviation is shown n=2. E:T, effector:target.
Therefore, the effect of promising Nef inhibitor analogs is generated as disclosed herein on anti-HIV-1 CTL killing using the in vitro flow cytometric CTL killing assay developed previously (FIGS. 1 and 8 ? (Collins et al., 1998). These studies utilize CTL clones reactive against various HIV-1 epitopes known to be affected by Nef (Collins et al., 1998).
(In general: A flow cytometer gives signals particle by particle.)

A further data set deals with C57BL/6J mice. Particulars: cited from earlier work.
[4] abbreviates: HIV-1 infected primary T lymphocytes.
The mark [5] stands for this setting: 24 hr Lysotracker IC50, 1000 nM set as activity threshold (FIG. 11-14).
Setting [6] is: intraperitoneal daily over three days, 10 mg/kg.
Where [7] appears, read: Homo sapiens, PBMC, 24 h, 24 hr Lysotracker IC50, 1000 nM set as activity threshold (FIG. 11-14).

Structures are written as SMILES. Like-named read-outs stand apart in the source and are kept apart here.

Consider 13 molecules from patent US20240067634A1, “INHIBITORS OF NEF DOWNMODULATION” (priority 2020, published 2024).

One may read the IC50 as the concentration that inhibits the measured activity by half.

With `C/C=C/[C@H]1O[C@@](O)([C@@H](C)[C@H](O)[C@H](C)[C@H]2OC(=O)/C(OC)=C/C(C)=C/[C@@H](C)[C@@H](O)[C@@H](CC)[C@@H](O)[C@H](C)C/C(C)=C/C=C/[C@@H]2OC)C[C@@H](O[C@H]2C[C@@H](O)[C@H](OC(N)=O)[C@@H](C)O2)[C@@H]1C` [CMA, Concanamycin A], at HIV-1 Nef (setting [4]), the “restoration of MHC-I HLA-A2 surface expression” value was “restore MHC-I HLA-A2”. The “concentration with activity in restoring MHC-I HLA-A2” value on HIV-1 Nef (HIV-1 infected primary T lymphocytes, FIG. 2) is around 100 pM. In addition, the IC50 in data set [1] (setting [5]) came out at 0.977 nM. In addition, in the data set with C57BL/6J and BALB/c mice, the overall body weight result is listed as “not affected”, the “pancreatic islet cell size” value is on record as “decrease in pancreatic islet cell size” and the random blood glucose result was “did not cause significant variations”. In addition, the “Nef-dependent degradation of MHC-I” value in data set [2] (antibody HC-10, FIG. 9) is on record as “selectively reverses”. Also, the “Nef-mediated CD4 degradation” value in data set [2] (concentrations sufficient to reverse Nef-mediated degradation of MHC-I, FIG. 9) is recorded as “did not significantly alter”. In addition, the “CTL killing of HIV-1 WT infected primary T cells” value in data set [3] is given as “increases CTL killing”.

Turning to `CO/C1=C\C(C)=C\[C@@H](C)[C@@H](O)[C@@H](C)C/C(C)=C/C=C/[C@H](OC)[C@@H]([C@@H](C)[C@@H](O)[C@H](C)[C@@]2(O)C[C@@H](O)[C@H](C)[C@@H](C(C)C)O2)OC1=O` [BafA1, Bafilomycin A1], on HIV-1 Nef (setting [4]), the “restoration of MHC-I HLA-A2 surface expression” value is “restore MHC-I HLA-A2”. Also, the IC50 in data set [1] (setting [5]) was determined as 45.2 nM. In addition, in the data set with C57BL/6J and BALB/c mice, the overall body weight result is “not affected”, the “pancreatic islet cell size” value is on record as “decrease in pancreatic islet cell size” and the random blood glucose result is “did not cause significant variations”. For the same molecule, in the data set on C57BL/6J mice (25 mg/kg, within 12 days of injection), the weight loss is on record as 30%. Also, in the data set on C57BL/6J mice (setting [6]), the body weight result is given as “maintained a normal weight” and the liver toxicity result was “no evidence of liver toxicity”. Also, in the data set with C57BL/6J mice (intraperitoneal, 25 mg/kg), the liver enzymes result is “increases in liver enzymes indicative of liver damage”.

As to `C/C=C/C1OC(O)(C(C)C(O)C(C)C2OC(=O)/C(OC)=C/C(C)=C/C(C)C(O)C(CC)C(O)C(C)C/C(C)=C/C=C/C2OC)CC(OC(=O)/C=C/C(=O)NC2=C(O)CCC2=O)C1C` (stereo not shown) [Virustomycin, reference compound], the IC50 on HIV-1 Nef was 0.688 nM; in data set [1] (setting [5]), 3.68 nM.

Turning to `C/C=C/CC(=O)O[C@@H]1C[C@](O)([C@@H](C)[C@H](O)[C@H](C)[C@H]2OC(=O)/C(OC)=C/C(C)=C/[C@@H](C)[C@@H](O)[C@@H](C)C/C(C)=C/C=C/[C@@H]2OC)O[C@H](C(C)C)[C@H]1C` [21-Penta-3-enoate Baf A1, 21-pent-3-enoate Bafilomycin], the IC50 in data set [1] (setting [7]) was determined as 60.2 nM.

For `CCCCCCCCC(=O)O[C@@H]1C[C@](O)([C@@H](C)[C@H](O)[C@H](C)[C@H]2OC(=O)/C(OC)=C/C(C)=C/[C@@H](C)[C@@H](O)[C@@H](C)C/C(C)=C/C=C/[C@@H]2OC)O[C@H](C(C)C)[C@H]1C` [21-Nonanoate Baf A1, 21-nonanoate Bafilomycin], the IC50 in data set [1] (setting [7]) worked out at 146 nM.

Regarding `CO/C1=C\C(C)=C\[C@@H](C)[C@@H](O)[C@@H](C)C/C(C)=C/C=C/[C@H](OC)[C@@H]([C@@H](C)[C@@H](O)[C@H](C)[C@@]2(O)C[C@@H](OC(C)=O)[C@H](C)[C@@H](C(C)C)O2)OC1=O` [21-Acetyl Baf, 21-Acetyl Bafilomycin], the IC50 in data set [1] (Homo sapiens, PBMC, 24 h) came to 22.7 nM.

For the molecule `C#CCCC1(CCC(=O)O[C@H]2C[C@@H](O[C@@H]3C[C@](O)([C@@H](C)[C@H](O)[C@H](C)[C@H]4OC(=O)/C(OC)=C/C(C)=C/[C@@H](C)[C@@H](O)[C@@H](CC)[C@@H](O)[C@H](C)C/C(C)=C/C=C/[C@@H]4OC)O[C@H](/C=C/C)[C@H]3C)O[C@@H](C)[C@@H]2O)N=N1` [Dual Linear Probe CMA, 3′-(3-(3-(but-3-yn-1-yl)-3H-diazirin-3-yl)propanoate) Concanamycin A], in data set [1] (setting [7]), the IC50 was found to be 4.87 nM.

Regarding `C/C=C/[C@H]1O[C@@H]([C@@H](C)[C@H](O)[C@H](C)[C@H]2OC(=O)/C(OC)=C/C(C)=C/[C@@H](C)[C@@H](O)[C@@H](CC)[C@@H](O)[C@H](C)C/C(C)=C/C=C/[C@@H]2OC)C[C@@H](O)[C@@H]1C` [21-Deoxy CMF, 21-deoxy concanamycin F], the IC50 at HIV-1 Nef (24 hr Nef activity IC50, independent donors, 1000 nM set as activity threshold (FIG. 11-14)) worked out at 4.29 nM; in data set [1] (setting [5]), 23.3 nM.

With `C#CCCC(=O)O[C@@H]1C[C@](O)([C@@H](C)[C@H](O)[C@H](C)[C@H]2OC(=O)/C(OC)=C/C(C)=C/[C@@H](C)[C@@H](O)[C@@H](C)C/C(C)=C/C=C/[C@@H]2OC)O[C@H](C(C)C)[C@H]1C` [21 Alkyne Bafilomycin Probe, 21-pent-4-ynoate Bafilomycin], in data set [1] (setting [7]), the IC50 amounted to 29.1 nM.

Regarding `C=C/C=C/C(=O)O[C@@H]1C[C@](O)([C@@H](C)[C@H](O)[C@H](C)[C@H]2OC(=O)/C(OC)=C/C(C)=C/[C@@H](C)[C@@H](O)[C@@H](C)C/C(C)=C/C=C/[C@@H]2OC)O[C@H](C(C)C)[C@H]1C` [21-penta-2,4-dienoate Baf A1, 21-penta-2,4-dienoate Bafilomycin], the IC50 in data set [1] (setting [7]) came out at 25.1 nM.

For `CO/C1=C\C(C)=C\[C@@H](C)[C@@H](O)[C@@H](C)C/C(C)=C/C=C/[C@H](OC)[C@@H]([C@@H](C)[C@@H](O)[C@H](C)[C@H]2C[C@@H](OC(=O)c3ccc(C4(C(F)(F)F)N=N4)cc3)[C@H](C)[C@@H](C(C)C)O2)OC1=O` [21-Y Bafilomycin Probe, 21-(3-(trifluoromethyl)-3H-diazirin-3-yl)benzoate Bafilomycin], the IC50 in data set [1] (setting [7]) was at least 1000 nM.

For `CO/C1=C\C(C)=C\[C@@H](C)C(=O)[C@@H](C)C/C(C)=C/C=C/[C@H](OC)[C@@H]([C@@H](C)[C@@H](O)[C@H](C)[C@@]2(O)C[C@@H](O)[C@H](C)[C@@H](C(C)C)O2)OC1=O` [7-One Baf A1, 7-one Bafilomycin], the IC50 in data set [1] (Homo sapiens, PBMC, 24 h) was at least 1000 nM.

Regarding `CO/C1=C\C(C)=C\[C@@H](C)[C@@H](O)[C@@H](C)C/C(C)=C/C=C/[C@H](OC)[C@@H]([C@@H](C)[C@@H](O)[C@H](C)[C@H]2C[C@@H](O)[C@H](C)[C@@H](C(C)C)O2)OC1=O` [19-Deoxy Baf A1, 19-deoxy Bafilomycin], in data set [1] (setting [7]), the IC50 was determined as 111 nM.
